Consider 13 molecules from patent publication US20210078988A1, “MODULATORS OF INDOLEAMINE 2,3-DIOXYGENASE” (GLAXOSMITHKLINE INTELLECTUAL PROPERTY DEVELOPMENT LIMITED, priority 2017, published 2021).

This assay deals with T1, indoleamine 2, 3-dioxygenase (IDO1) (Homo sapiens, UniProt P14902).
T1 construct: human peripheral blood mononuclear cells (PBMC) (PB003F; host or cells: human PBMC stimulated with IFN-gamma and LPS
T1 sequence (P14902 whole entry): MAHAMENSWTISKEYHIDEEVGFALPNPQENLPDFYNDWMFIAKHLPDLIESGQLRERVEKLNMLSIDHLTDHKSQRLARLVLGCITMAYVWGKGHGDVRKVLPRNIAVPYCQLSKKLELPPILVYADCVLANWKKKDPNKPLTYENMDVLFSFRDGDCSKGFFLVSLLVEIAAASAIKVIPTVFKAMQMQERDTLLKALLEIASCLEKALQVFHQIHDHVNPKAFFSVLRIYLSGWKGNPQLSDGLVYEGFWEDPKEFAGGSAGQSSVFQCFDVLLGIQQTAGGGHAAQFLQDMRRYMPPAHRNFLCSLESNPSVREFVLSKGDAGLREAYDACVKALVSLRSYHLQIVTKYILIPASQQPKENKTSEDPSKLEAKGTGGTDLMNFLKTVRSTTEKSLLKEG
The assay can be described thus: PBMC IDO1 assay (kynurenine detection via mass spectrometry). The format is cell-based. Conditions: human PBMC stimulated with IFN-γ and LPS, 2 days, kynurenine by mass spectrometry; read-out: IDO1 PBMC pIC50 (converted). The gist of the method: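 Kynurenine output, read by RapidFire mass spectrometry as a ratio to internal standard, reflected IDO1 activity in human PBMCs induced with 100 ng/ml IFN-γ plus 50 ng/ml LPS and dosed with compound (11 points, 3-fold) over 2 days. Cytotoxicity was tracked by CellTiter-Glo; XC50 values came from Hill-slope fits.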
On to `CC(C)c1nnc(C(CC2CCN(C(=O)OC(C)(C)C)CC2)NC(=O)c2ccc(F)cc2)o1` (stereo not shown) [Example 223, tert-butyl 4-(2-(4-fluorobenzamido)-2-(5-isopropyl-1,3,4-oxadiazol-2-yl)ethyl)piperidine-1-carboxylate], for which the IC50 was 501 nM. For `CC(C)(C)OC(=O)N1CCC(CC(NC(=O)c2ccc(Cl)s2)c2n[nH]c(=O)o2)CC1` (stereo not shown) [Example 224, tert-butyl 4-(2-(5-chlorothiophene-2-carboxamido)-2-(5-oxo-4,5-dihydro-1,3,4-oxadiazol-2-yl)ethyl)piperidine-1-carboxylate] the value was 501 nM.

As to `CC(C)CNCC(CC1CCN(C(=O)OC(C)(C)C)CC1)NC(=O)c1ccc(F)cc1` (stereo not shown) [Example 225, tert-butyl 4-(2-(4-fluorobenzamido)-3-(isobutylamino)propyl)piperidine-1-carboxylate], the IC50 is 501 nM. For `CC(C)(C)OC(=O)N1CCC(CC(NC(=O)c2ccc(F)cc2)c2ccccn2)CC1` (stereo not shown) [Example 226, tert-butyl 4-(2-(4-fluorobenzamido)-2-(pyridin-2-yl)ethyl)piperidine-1-carboxylate] the value was 631 nM; for `CC(C)Cc1ccc(C(=O)NC(CC2CCN(C(=O)OC(C)(C)C)CC2)c2ccccc2)s1` (stereo not shown) [Example 227, tert-butyl 4-(2-(5-isobutylthiophene-2-carboxamido)-2-phenylethyl)piperidine-1-carboxylate], 631 nM; for `CC(C)(C)OC(=O)N1CCC(CC(NC(=O)c2ccco2)c2ccccc2)CC1` (stereo not shown) [Example 228, tert-butyl 4-(2-(furan-2-carboxamido)-2-phenylethyl)piperidine-1-carboxylate], 631 nM.

As to `CC(C)(C)OC(=O)N1CCC(C[C@H](Nc2ccnc(Cl)n2)C2CC2)CC1` [Example 229, (S)-tert-butyl 4-(2-((2-chloropyrimidin-4-yl)amino)-2-cyclopropylethyl)piperidine-1-carboxylate], the IC50 is 631 nM. In the case of `O=C(NC(CC1CCN(C(=O)N2CCCCC2)CC1)c1ccccc1)c1ccc(Cl)cc1` (stereo not shown) [Example 230, 4-chloro-N-(1-phenyl-2-(1-(piperidine-1-carbonyl)piperidin-4-yl)ethyl)benzamide] it was 631 nM. For the molecule `CCNCC[C@H](CC1CCN(C(=O)OC(C)(C)C)CC1)NC(=O)c1ccc(Cl)s1` [Example 231, (S)-tert-butyl 4-(2-(5-chlorothiophene-2-carboxamido)-4-(ethylamino)butyl)piperidine-1-carboxylate], the IC50 is 631 nM. Turning to `CC(C)(C)OC(=O)N1CCC(CC(NC(=O)C2CCCC2)c2ccccc2)CC1` (stereo not shown) [Example 232, tert-butyl 4-(2-(cyclopentanecarboxamido)-2-phenylethyl)piperidine-1-carboxylate], the IC50 was 794 nM. Regarding `CC1CCC(C(=O)NC(CC2CCN(C(=O)OC(C)(C)C)CC2)c2ccccc2)CC1` (stereo not shown) [Example 233, tert-butyl 4-(2-(4-methylcyclohexanecarboxamido)-2-phenylethyl)piperidine-1-carboxylate], the IC50 was 794 nM.

Take `CC(C)(C)OC(=O)N1CCC(C[C@@H](NC(=O)c2ccc(Cl)cc2)c2ccccc2)CC1` [Example 234, (R)-tert-butyl 4-(2-(4-chlorobenzamido)-2-phenylethyl)piperidine-1-carboxylate]: the IC50 was 794 nM. `COCCNCC(CC1CCN(C(=O)OC(C)(C)C)CC1)NC(=O)c1ccc(F)cc1` (stereo not shown) [Example 235, tert-butyl 4-(2-(4-fluorobenzamido)-3-((2-methoxyethyl)amino)propyl)piperidine-1-carboxylate]: the IC50 was 794 nM.
